These are literature values, as cited in patent US6703346B2, “Herbicide compositions comprising imidazolinone acid, methods of preparation, and methods of use” (Platte Chemical Co., priority 2001, dated 2004).

The conditions of this data set: general statement, no measurement described.

`CC(C)C1(C)N=C(c2nc3ccccc3cc2C(=O)O)NC1=O` (stereo not drawn) [imazaquin]: the pKa entry was “approximately 3.8”. For imazamethbenz, the pKa result is reported as “approximately 2.9”. Consider `CCc1cnc(C2=NC(C)(C(C)C)C(=O)N2)c(C(=O)O)c1` (stereo not drawn) [imazethapyr], for which the pKa entry is on record as “approximately 3.9”.
